Test results reported in a melting point compilation (Tetko et al.; mined from patent text by program, amines drawn as free bases though some values may be those of a salt).

Structure (SMILES)	melting point [°C]
CCCN1C(=O)N2CC(Cc3ccccc3)N=C2c2[nH]c(C(OC)c3ccccc3)nc21 (stereo not given)	160 to 162
Brc1ccn(-c2ccc(-c3ccccc3)cc2)c1	141 to 143
COC(=O)CCc1cc2cc(Br)ccc2n1S(=O)(=O)c1ccccc1	109 to 113
Cc1cnc(N(C)C)nc1-c1ccncc1	114 to 116
CCN1c2ncccc2C(=O)N(C)c2ccc(-c3cccn3C(C)=O)nc21	106 to 108
O=C(O)CCN=c1sc2ccccc2s1	203 to 204
CC(C)CN(Cc1nc(-c2ncn3c2[C@@H]2CCN2C(=O)c2c(Cl)cccc2-3)no1)CC(C)C	125 to 140
O=C(c1cc2cc3[nH]c(=O)[nH]c3cc2[nH]1)N1CCC(Cc2ccccc2)CC1	> 270
COC(=O)C=C1C[N+]([O-])=C(c2ccccc2)c2cc(Cl)ccc2N1	215 to 216
CC1(C)OC(c2ccc(S(N)(=O)=O)cc2)=C(c2cc3ccccc3s2)C1=O	120 to 121
CC(CCCl)C(=O)Nc1cc(C(C)(C)C)no1 (stereo not given)	135 to 137
OC(CN1CCN(Cc2ccc(F)cc2)CC1)Cn1c2ccccc2c2cc(-c3ccccc3)ccc21 (stereo not given)	188
O=P(O)(O)Cc1ccc(-c2ccc(CP(=O)(O)O)cc2)cc1	114
COc1ccc(C(=O)C#N)cc1	51 to 53
Cc1nc(NC2CC2)ccc1N1CCCn2c1nc1c(Cl)ccc(C(OC(F)F)C(F)(F)F)c12 (stereo not given)	168 to 170
NCCCOc1ccc(-c2ncc3c(=O)[nH][nH]c(=O)c3c2O)cc1	> 300

Structure (SMILES)	melting point [°C]
COC(=O)CSC(c1ccccc1OC)c1ccccc1OC	65 to 67
COc1cc2c(Nc3cc(OC)c(OC)c(OC)c3)c(C#N)cnc2cc1/C=C/CCN1CCN(C)CC1	122 to 124
COC(=O)c1ccc(CN2CCN(CC(C)O)CC2)cc1 (stereo not given)	63 to 64
CCc1cnc2c(NC(=O)c3c(Cl)cccc3Cl)cccc2c1/C=C/C(=O)O	235 to 236
COc1cc(OC)c(-c2cccs2)cc1/C=C/C(=O)c1ccc(S(=O)(=O)Nc2nccs2)cc1	220 to 221
Cc1c2n(c3ccccc13)C(=O)C(C(O)c1cccnc1)CC2 (stereo not given)	83 to 86
CC1(C)C(c2ccccc2)=Nc2ccc(C3=NNC(=O)CC3)cc21	200 to 201
N#Cc1ccc(NC(=O)c2cccc(OCc3cc(F)cc(F)c3)c2)cc1	185 to 187
O=C(O)CCCN1CCN(Cc2ccc3c(c2)-c2[nH]nc(-c4ccsc4)c2C3)CC1	195 to 198
Cc1ccc(CC(C)NCC(O)c2cc3ccccc3o2)cc1 (stereo not given)	88 to 100
O=C1CC(c2cccc(-n3ccnc3)c2)=Nc2cc(N3CCC(OCCO)CC3)c(-c3ccc(F)cc3)cc2N1	225 to 227
O=C(Nc1ccc(OCc2ccoc2)c2ccccc12)c1cc(F)cc(N2CCCCC2)c1	152 to 153
CN1Cc2c(-c3nc(CCl)co3)ncn2-c2cccc(Cl)c2C1=O	249 to 251
O=C(O)c1ccc(C(=O)Nc2cc3c4c(c2)CCCC4CCC3)cc1	283 to 284
COCC(c1ccccc1)N(C)Cc1c(-c2ccc(NC(=O)NOC)cc2)sc2c1c(=O)n(-c1ccccc1)c(=O)n2Cc1c(F)cccc1F (stereo not given)	169 to 172
Cc1nnc(CCl)n1-c1ccc(Cl)cc1C(=O)c1ccccc1Cl	127 to 130

More lines, now with the values ahead:

melting point [°C]	Structure (SMILES)
232 to 233	CCn1cc(C(=O)O)c(=O)c2cnc(N3CCN(C)CC3)nc21
250 to 251	NC(=O)c1cc2cc(Cl)ccc2nc1N
212 to 214	Cc1n[nH]c(-c2ccccc2)c1-c1ccncc1
142 to 144	ClC(=NNc1ccc(Br)cc1)c1ccc(Cl)cc1
43 to 45	CCOC(=O)c1c(C(F)F)nc(C(F)(F)F)c(C(=O)OCC)c1-c1ccncc1
130 to 132	CCCCCCCCCCC=CCc1c[nH]c(C(=O)NN)c1
127	COc1cc2ccc(-c3ccc(C(C)C)cc3)cc2oc1=O
105 to 107	CS(=O)(=O)c1ccc(Cc2ccc(CCNS(=O)(=O)c3ccc(Cl)cc3)c(CCC(=O)O)c2)cc1
158 to 161	Cc1[nH]cnc1CSCCNC(=S)NC#N
> 275	COc1ccc(/C=C/c2nc3c([nH]2)c(=O)n(C)c(=O)n3C)c(C)c1C
147 to 151	CC1CC2Oc3ccc(Cl)cc3C(=O)N2O1 (stereo not given)
336 to 339	O=c1[nH]c2ccc([C@H]3CC[C@H](NCCCc4ccc(F)cc4)CC3)cc2[nH]1
208 to 209	O=C(O)c1ccc(C(=O)/C=C/c2cc(-c3cccs3)ccc2N2CCCC2)cc1
115 to 118	N#Cc1ccc2c(c1)CC(Br)C2=O (stereo not given)
295 to 296	Cc1cc(=O)n2c3c(cc(C(O)(C(F)(F)F)C(F)(F)F)cc13)CCC2
111 to 112	CCOC(=O)/C(=N/OCc1ccccc1)c1ccc(OCCOc2ccc3ccccc3c2)s1
205 to 207	CON=C1CN(c2c(F)cc3c(=O)c(C(=O)O)cn(C4CC4)c3c2F)CC12CNC2
85 to 87	COC(=O)c1sc(-c2ccccc2)c(Br)c1O
131 to 134	CCCCCc1ccc(S(=O)(=O)n2c(CCC(=O)O)cc3cc(Cl)ccc32)cc1

melting point [°C]	Structure (SMILES)
161 to 162	CCCC1Sc2ccc(F)cc2C=C1c1ccc2c(c1)NC(=O)CO2 (stereo not given)
243 to 245	N#Cc1cccc(S(=O)(=O)N2CCn3c(c(C(N)=O)c(Cl)c3-c3ccccc3)C2)c1
136 to 138	CC(=O)NC[C@H]1CN(c2ccc(N3CCC(Cc4noc(C)n4)CC3)c(F)c2)C(=O)O1
192 to 193	C[C@@H](n1cnc2ccc(F)cc2c1=O)[C@](O)(Cn1cncn1)c1ccc(F)cc1F
119 to 121	CSC(C(=O)N1CCOCC1)c1cccc(C(=O)c2ccccc2)c1N (stereo not given)
267 to 269	CCCCN(CCCC)c1cc(=O)n(-c2ccc(S(=O)(=O)O)cc2)[nH]1
237 to 240	COC1(c2cc(Sc3ccc(/C(C)=N/O)cc3)nc(N)n2)CCOCC1
181 to 185	C=CCOc1ncc(F)c(N(N)C(=O)c2cccc(C)c2)n1
65 to 68	CCOC(=O)COc1ccc(OCc2ccccc2)cc1
190 to 191	c1snc2c1Sc1csnc1S2
226 to 228	Cc1cc(NC(=O)C2=C(O)c3ccccc3S(=O)(=O)CC2)no1
225 to 230	COC(=O)C(C(=O)OC)c1cc(F)cc2c1C(=O)c1cc3ccccc3cc1C2=O
71 to 73	COc1ccccc1N1CCN(C2CCN(c3noc4ccccc34)CC2)CC1
128 to 135	CC1C(c2ccccc2)NC(c2ccccc2)C(C)C1OC(=O)CCCCCCCCC(=O)OC1C(C)C(c2ccccc2)NC(c2ccccc2)C1C (stereo not given)
106 to 107	CCN(CC)CCn1sc2nc(-c3ccccc3)ncc2c1=O
94	CCCCc1oc2ccc(NS(C)(=O)=O)cc2c1C(O)c1ccc(OCCCN(CCCC)CCCC)cc1 (stereo not given)
36 to 38	COc1ccccc1OCCCl
> 300	CC(=O)N(CC=C=CC=c1c(C)c2c(n(C)c1=O)=NN(c1ccccc1)C2=O)c1ccccc1
236 to 240	CC(C)C(c1cc(Cl)ccc1N1CCCCC1)C(C(N)=O)c1ccc(C(=O)O)cc1 (stereo not given)
